Reference: patent EP0340307A1, “COMPOSITION OF POLYMER DIFFUSION MATRIX FOR TRANSDERMALLY INTRODUCING PHARMACEUTICAL SUBSTANCES” (priority 1987, dated 1989)
Like-named read-outs stand apart in the source and are kept apart here.

Test: In vitro transdermal delivery of the drug from the diffusion matrix through human cadaver skin epidermis into Ringer solution
Description: Es wurde von uns eine Diffusionsmatrix "in vitro" untersucht, die auf der Grundlage der erfindungsgemäßen Zusammensetzung hergestellt wurde.
So wird, beispielsweise, auf eine Adhäsionsschicht einer Diffusionsmatrix mit runder Form und einem Radius von 1 cm (Fläche 3,14 cm²), die auf der Grundlage einer Zusammensetzung hergestellt wird, die 26,7 g Propranolol, 40 g Polyäthylenglykol mit einer Molekularmasse von 400 und 100 g Polyvinylpyrrolidon enthält, ein Probestück aus der Epidermis der Leichenhaut eines Menschen (mit der Außenoberfläche der Epidermis an die Diffusionsmatrix) aufgeklebt. Das Laminat der Diffusionsmatrix mit der Hautepidermis taucht man in die in einem Magnetrührer zu vermischende Ringer-Lösung ein. In den vorgegebenen Zeitabständen nimmt man aus der Lösung Proben ab, in denen man den Gehalt an Propranolol mit Hilfe der Spektrofluorometrie ermittelt, wobei die vorher aufgebauten Eichkurven genutzt werden.

| Compound | Geschwindigkeit des transdermalen Eintritts des Arzneistoffes aus der Matrix (drug contained in the named matrix, through cadaver skin) | Geschwindigkeit der transdermalen Zuführung aus einer Matrix, die einen Füllstoff enthält | Geschwindigkeit des transdermalen Eintritts des Arzneistoffes aus der Matrix |
| --- | --- | --- | --- |
| O=[N+]([O-])OCC(CO[N+](=O)[O-])O[N+](=O)[O-] [Nitroglyzerin] | 39 µg/cm².h |  |  |
| CC(C)NCC(O)COc1cccc2ccccc12 (stereo not drawn) [Propranolol] |  | 55 µg/cm².h | 47 µg/cm².h |
